biological target: T1, CD22 (Homo sapiens, UniProt P20273); test: ELISA-based inhibition assay: inhibition of binding of soluble CD22 to immobilized IgM; conditions: Table I; relative to reference BPCNeu5Ac (rIP = 1)
T1 construct: The soluble CD22 protein was expressed in the CHO-Lec1 cell line; made in house; host or cells: CHO-Lec1
T1 sequence (P20273 20-687 limits assumed): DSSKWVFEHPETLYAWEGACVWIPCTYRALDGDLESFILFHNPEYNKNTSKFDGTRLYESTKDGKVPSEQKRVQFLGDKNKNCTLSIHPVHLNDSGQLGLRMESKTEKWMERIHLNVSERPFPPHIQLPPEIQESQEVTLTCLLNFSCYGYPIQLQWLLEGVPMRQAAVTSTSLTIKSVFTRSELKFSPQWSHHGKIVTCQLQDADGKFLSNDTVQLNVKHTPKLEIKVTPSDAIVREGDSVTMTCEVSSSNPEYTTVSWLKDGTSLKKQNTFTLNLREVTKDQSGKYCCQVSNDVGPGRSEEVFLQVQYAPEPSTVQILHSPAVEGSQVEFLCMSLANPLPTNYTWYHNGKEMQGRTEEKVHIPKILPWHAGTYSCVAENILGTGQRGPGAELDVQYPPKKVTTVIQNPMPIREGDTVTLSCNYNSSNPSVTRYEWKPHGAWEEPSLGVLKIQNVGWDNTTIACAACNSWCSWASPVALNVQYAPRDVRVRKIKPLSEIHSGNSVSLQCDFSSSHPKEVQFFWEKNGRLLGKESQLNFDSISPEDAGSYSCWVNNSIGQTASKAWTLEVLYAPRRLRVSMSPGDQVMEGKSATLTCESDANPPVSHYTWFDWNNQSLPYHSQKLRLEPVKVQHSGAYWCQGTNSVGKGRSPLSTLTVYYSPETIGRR
Protocol: The biological activity of the substances was determined in an ELISA-based inhibition assay as described in “Eur. J. Immunol. 2012, 42, 2792-2802”. The sialic acid derivatives of the formula (I) inhibit the binding of soluble CD22 to immobilized IgM in proportion to their affinity for CD22. The soluble CD22 protein was expressed in the CHO-Lec1 cell line and isolated as described by “Eur. J. Immunol. 2012, 42, 2792-2802”. […] The increase in affinity is reported as rIP (relative inhibitory affinity).

Structure (SMILES)	rIP (relative inhibitory potency)
CO[C@]1(C(=O)[O-])C[C@H](O)[C@@H](NC(C)=O)[C@H]([C@H](O)[C@H](O)CNC(=O)c2ccc(-c3ccccc3)cc2)O1.[Na+] [BPC Neu5 Ac, reference compound]	1
CC(=O)N[C@H]1[C@H]([C@H](O)[C@H](O)CNC(=O)c2ccc(-c3ccccc3)cc2)O[C@@](OCCCCCC(=O)[O-])(C(=O)[O-])C[C@@H]1NS(=O)(=O)[O-].[Na+].[Na+].[Na+] [Compound 15]	1920
CCC(=O)N[C@H]1C[C@](OCCCCCC(=O)[O-])(C(=O)[O-])O[C@@H]([C@H](O)[C@H](O)CNC(=O)c2ccc(-c3ccccc3)cc2)[C@@H]1NC(C)=O.[Na+].[Na+] [Compound 17]	502
CC(=O)N[C@H]1[C@H]([C@H](O)[C@H](O)CNC(=O)c2ccc(-c3ccccc3)cc2)O[C@@](OCCCSCCC(=O)[O-])(C(=O)[O-])C[C@@H]1OS(=O)(=O)[O-].[Na+].[Na+].[Na+] [Compound 20]	3130
CC(=O)N[C@H]1[C@H]([C@H](O)[C@H](O)CNC(=O)c2ccc(-c3ccc(F)cc3)cc2)O[C@@](OCCCCCC(=O)[O-])(C(=O)[O-])C[C@@H]1NS(=O)(=O)[O-].[Na+].[Na+].[Na+] [Compound 37]	405

same assay, conditions: Table I; soluble CD22 binding to immobilized IgM

Structure (SMILES)	IC50
CO[C@]1(C(=O)[O-])C[C@H](O)[C@@H](NC(C)=O)[C@H]([C@H](O)[C@H](O)CNC(=O)c2ccc(-c3ccccc3)cc2)O1.[Na+] [BPC Neu5 Ac, reference compound]	6100 nM
CCC(=O)N[C@@H]1[C@@H](NC(C)=O)[C@H]([C@H](O)[C@H](O)CNC(=O)c2ccc(-c3ccccc3)cc2)O[C@@](OCCCCCC(=O)O)(C(=O)O)[C@H]1O [Compound 10]	6 nM
CC(=O)N[C@@H]1[C@@H](NS(C)(=O)=O)[C@H](O)[C@](OCCCCCC(=O)O)(C(=O)O)O[C@H]1[C@H](O)[C@H](O)CNC(=O)c1ccc(-c2ccccc2)cc1 [Compound 11]	7.7 nM
CC(=O)N[C@H]1[C@H]([C@H](O)[C@H](O)CNC(=O)c2ccc(-c3ccccc3)cc2)O[C@@](OCCCCCC(=O)[O-])(C(=O)[O-])C[C@@H]1NS(=O)(=O)[O-].[Na+].[Na+].[Na+] [Compound 15]	3.2 nM
CCC(=O)N[C@H]1C[C@](OCCCCCC(=O)[O-])(C(=O)[O-])O[C@@H]([C@H](O)[C@H](O)CNC(=O)c2ccc(-c3ccccc3)cc2)[C@@H]1NC(C)=O.[Na+].[Na+] [Compound 17]	12 nM
CC(=O)N[C@H]1[C@H]([C@H](O)[C@H](O)CNC(=O)c2ccc(-c3ccccc3)cc2)O[C@@](OCCCSCCC(=O)[O-])(C(=O)[O-])C[C@@H]1OS(=O)(=O)[O-].[Na+].[Na+].[Na+] [Compound 20]	2 nM
CC(=O)N[C@H]1[C@H]([C@H](O)[C@H](O)CNC(=O)c2ccc(-c3ccccc3)cc2)O[C@@](OCCCSCCC(=O)O)(C(=O)O)C[C@@H]1NC(=O)OC(C)(C)C [Compound 29]	85 nM
CC(=O)N[C@H]1[C@H]([C@H](O)[C@H](O)CNC(=O)c2ccc(-c3ccc(F)cc3)cc2)O[C@@](OCCCCCC(=O)[O-])(C(=O)[O-])C[C@@H]1NS(=O)(=O)[O-].[Na+].[Na+].[Na+] [Compound 37]	15 nM

same assay, conditions: Table II; relative to reference compound 10 co-tested in the same assay (rIP = 1)

Structure (SMILES)	rIP
CC(=O)N[C@@H]1[C@@H](NC(C)=O)[C@H](O)[C@](OCCCCCC(=O)[O-])(C(=O)[O-])O[C@H]1[C@H](O)[C@H](O)CNC(=O)c1ccc(-c2ccccc2)cc1.[Na+].[Na+] [Compound 38]	0.45
CC(=O)N[C@@H]1[C@@H](NC(=O)C(C)C)[C@H](O)[C@](OCCCCCC(=O)[O-])(C(=O)[O-])O[C@H]1[C@H](O)[C@H](O)CNC(=O)c1ccc(-c2ccccc2)cc1.[Na+].[Na+] [Compound 39]	0.70
CC(=O)N[C@@H]1[C@@H](NC(=O)C(C)(C)C)[C@H](O)[C@](OCCCCCC(=O)[O-])(C(=O)[O-])O[C@H]1[C@H](O)[C@H](O)CNC(=O)c1ccc(-c2ccccc2)cc1.[Na+].[Na+] [Compound 40]	0.38
CC(=O)N[C@@H]1[C@@H](NC(=O)CCl)[C@H](O)[C@](OCCCCCC(=O)[O-])(C(=O)[O-])O[C@H]1[C@H](O)[C@H](O)CNC(=O)c1ccc(-c2ccccc2)cc1.[Na+].[Na+] [Compound 41]	0.37
CCCCC(=O)N[C@@H]1[C@@H](NC(C)=O)[C@H]([C@H](O)[C@H](O)CNC(=O)c2ccc(-c3ccccc3)cc2)O[C@@](OCCCCCC(=O)[O-])(C(=O)[O-])[C@H]1O.[Na+].[Na+] [Compound 42]	1.22
CC(=O)N[C@@H]1[C@@H](NC(=O)CF)[C@H](O)[C@](OCCCCCC(=O)[O-])(C(=O)[O-])O[C@H]1[C@H](O)[C@H](O)CNC(=O)c1ccc(-c2ccccc2)cc1.[Na+].[Na+] [Compound 43]	0.25
CC(=O)N[C@@H]1[C@@H](NC(=O)CO)[C@H](O)[C@](OCCCCCC(=O)[O-])(C(=O)[O-])O[C@H]1[C@H](O)[C@H](O)CNC(=O)c1ccc(-c2ccccc2)cc1.[Na+].[Na+] [Compound 44]	0.24
CC(=O)N[C@@H]1[C@@H](NC(=O)C2CC2)[C@H](O)[C@](OCCCCCC(=O)[O-])(C(=O)[O-])O[C@H]1[C@H](O)[C@H](O)CNC(=O)c1ccc(-c2ccccc2)cc1.[Na+].[Na+] [Compound 45]	0.81
CC(=O)N[C@@H]1[C@@H](NC(=O)CCCl)[C@H](O)[C@](OCCCCCC(=O)[O-])(C(=O)[O-])O[C@H]1[C@H](O)[C@H](O)CNC(=O)c1ccc(-c2ccccc2)cc1.[Na+].[Na+] [Compound 46]	0.84
CC(=O)N[C@@H]1[C@@H](NC(=O)CN(C)C)[C@H](O)[C@](OCCCCCC(=O)[O-])(C(=O)[O-])O[C@H]1[C@H](O)[C@H](O)CNC(=O)c1ccc(-c2ccccc2)cc1.[Na+].[Na+] [Compound 47]	0.18
CC(=O)N[C@@H]1[C@@H](NC(=O)c2ccccc2)[C@H](O)[C@](OCCCCCC(=O)[O-])(C(=O)[O-])O[C@H]1[C@H](O)[C@H](O)CNC(=O)c1ccc(-c2ccccc2)cc1.[Na+].[Na+] [Compound 48]	0.93
COc1cccc(C(=O)N[C@@H]2[C@@H](NC(C)=O)[C@H]([C@H](O)[C@H](O)CNC(=O)c3ccc(-c4ccccc4)cc3)O[C@@](OCCCCCC(=O)[O-])(C(=O)[O-])[C@H]2O)c1.[Na+].[Na+] [Compound 49]	0.34
CC(=O)N[C@@H]1[C@@H](NC(=O)c2cccc(C)c2)[C@H](O)[C@](OCCCCCC(=O)[O-])(C(=O)[O-])O[C@H]1[C@H](O)[C@H](O)CNC(=O)c1ccc(-c2ccccc2)cc1.[Na+].[Na+] [Compound 50]	0.51
CC(=O)N[C@@H]1[C@@H](NC(=O)c2ccccc2C)[C@H](O)[C@](OCCCCCC(=O)[O-])(C(=O)[O-])O[C@H]1[C@H](O)[C@H](O)CNC(=O)c1ccc(-c2ccccc2)cc1.[Na+].[Na+] [Compound 51]	0.13
CC(=O)N[C@@H]1[C@@H](NC(=O)c2ccccc2Cl)[C@H](O)[C@](OCCCCCC(=O)[O-])(C(=O)[O-])O[C@H]1[C@H](O)[C@H](O)CNC(=O)c1ccc(-c2ccccc2)cc1.[Na+].[Na+] [Compound 52]	0.12

same assay, conditions: Table III; relative to reference compound 17 co-tested in the same assay (rIP = 1)

Structure (SMILES)	rIP
CCC(=O)N[C@H]1C[C@](OCCCCCC(=O)[O-])(C(=O)[O-])O[C@@H]([C@H](O)[C@H](O)CNC(=O)c2ccc(-c3ccccc3)cc2)[C@@H]1NC(C)=O.[Na+].[Na+] [Compound 17]	1
CC(=O)N[C@H]1[C@H]([C@H](O)[C@H](O)CNC(=O)c2ccc(-c3ccccc3)cc2)O[C@@](OCCCCCC(=O)[O-])(C(=O)[O-])C[C@@H]1NC(=O)c1ccccc1.[Na+].[Na+] [Compound 53]	1.1
CC(=O)N[C@H]1[C@H]([C@H](O)[C@H](O)CNC(=O)c2ccc(-c3ccccc3)cc2)O[C@@](OCCCCCC(=O)[O-])(C(=O)[O-])C[C@@H]1NC(=O)c1c(F)cccc1F.[Na+].[Na+] [Compound 54]	0.75
CC(=O)N[C@H]1[C@H]([C@H](O)[C@H](O)CNC(=O)c2ccc(-c3ccccc3)cc2)O[C@@](OCCCCCC(=O)[O-])(C(=O)[O-])C[C@@H]1NC(=O)c1cnccn1.[Na+].[Na+] [Compound 55]	2.7
CC(=O)N[C@H]1[C@H]([C@H](O)[C@H](O)CNC(=O)c2ccc(-c3ccccc3)cc2)O[C@@](OCCCCCC(=O)[O-])(C(=O)[O-])C[C@@H]1NC(=O)c1cccs1.[Na+].[Na+] [Compound 56]	3.6
CC(=O)N[C@H]1[C@H]([C@H](O)[C@H](O)CNC(=O)c2ccc(-c3ccccc3)cc2)O[C@@](OCCCCCC(=O)[O-])(C(=O)[O-])C[C@@H]1NC(=O)c1ccco1.[Na+].[Na+] [Compound 57]	6.1
CC(=O)N[C@H]1[C@H]([C@H](O)[C@H](O)CNC(=O)c2ccc(-c3ccccc3)cc2)O[C@@](OCCCCCC(=O)[O-])(C(=O)[O-])C[C@@H]1NC(=O)CC1NC(=O)NC1=O.[Na+].[Na+] (stereo partly shown) [Compound 58]	3.4
CC(=O)N[C@H]1[C@H]([C@H](O)[C@H](O)CNC(=O)c2ccc(-c3ccccc3)cc2)O[C@@](OCCCCCC(=O)[O-])(C(=O)[O-])C[C@@H]1NC(=O)c1ccc(C)cc1.[Na+].[Na+] [Compound 59]	0.24
CC(=O)N[C@H]1[C@H]([C@H](O)[C@H](O)CNC(=O)c2ccc(-c3ccccc3)cc2)O[C@@](OCCCCCC(=O)[O-])(C(=O)[O-])C[C@@H]1NC(=O)c1ccc(F)cc1.[Na+].[Na+] [Compound 60]	2.1
CC(=O)N[C@H]1[C@H]([C@H](O)[C@H](O)CNC(=O)c2ccc(-c3ccccc3)cc2)O[C@@](OCCCCCC(=O)[O-])(C(=O)[O-])C[C@@H]1NC(=O)c1ccc(Cl)cc1.[Na+].[Na+] [Compound 61]	3.4
CC(=O)N[C@H]1[C@H]([C@H](O)[C@H](O)CNC(=O)c2ccc(-c3ccccc3)cc2)O[C@@](OCCCCCC(=O)[O-])(C(=O)[O-])C[C@@H]1NC(=O)c1ccc(O)cc1.[Na+].[Na+] [Compound 62]	1.7
COc1ccc(C(=O)N[C@H]2C[C@](OCCCCCC(=O)[O-])(C(=O)[O-])O[C@@H]([C@H](O)[C@H](O)CNC(=O)c3ccc(-c4ccccc4)cc3)[C@@H]2NC(C)=O)cc1.[Na+].[Na+] [Compound 63]	0.27

Source: patent US10472381B2, “Sialic acid derivatives” (Reinhard Brossmer, priority 2014, dated 2019)
